Experimental data: patent US20240228488A1 (TAKEDA PHARMACEUTICAL COMPANY LIMITED, priority 2021, published 2024)
pEC50: −log10 of the molar value.

Target: human activated kallikrein enzyme (Homo sapiens, UniProt P03952)
Test: Plasma kallikrein inhibition, fluorogenic PFR-AMC substrate, 500 pM activated kallikrein format
Assay type: biochemical
Conditions: 500 pM activated kallikrein, 300 uM PFR-AMC, 30 min preincubation, 10 min reaction; read-out: Primary Dose Response Assay: Average EC50
Outline: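 High-enzyme format of the fluorogenic peptide assay, with EC50 taken from AMC signal: 500 pM activated kallikrein, 300 uM Pro-Phe-Arg-AMC, 30 min compound preincubation and 10 min reaction, all at room temperature, pH 7.5.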

Chain of human activated kallikrein enzyme (P03952 391-638 limits assumed): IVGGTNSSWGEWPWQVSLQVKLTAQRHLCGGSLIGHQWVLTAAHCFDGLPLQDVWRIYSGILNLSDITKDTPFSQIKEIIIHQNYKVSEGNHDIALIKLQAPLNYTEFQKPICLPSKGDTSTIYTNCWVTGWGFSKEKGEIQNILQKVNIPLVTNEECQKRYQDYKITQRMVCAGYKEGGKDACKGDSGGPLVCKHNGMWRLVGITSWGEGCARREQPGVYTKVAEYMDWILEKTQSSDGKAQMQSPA
Chain of human activated kallikrein enzyme (P03952 20-390 partner limits assumed): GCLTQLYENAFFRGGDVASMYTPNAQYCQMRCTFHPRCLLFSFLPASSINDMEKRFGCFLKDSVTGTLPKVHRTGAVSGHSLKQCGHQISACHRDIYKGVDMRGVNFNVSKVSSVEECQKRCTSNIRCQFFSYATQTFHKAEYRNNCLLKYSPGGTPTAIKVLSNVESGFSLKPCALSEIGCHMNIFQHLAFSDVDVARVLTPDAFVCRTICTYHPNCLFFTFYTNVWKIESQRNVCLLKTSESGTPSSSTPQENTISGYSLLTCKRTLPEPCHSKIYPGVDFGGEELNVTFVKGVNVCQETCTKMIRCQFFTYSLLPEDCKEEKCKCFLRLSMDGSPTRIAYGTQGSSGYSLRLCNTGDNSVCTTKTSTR

Compound	pEC50
Cc1ccnc([C@H]2C[C@@H]2C(=O)Nc2ncnc3nn(Cc4cn5cc(C6CC6)cc(N6CC(=O)N(C)C6=O)c5n4)cc23)n1 (racemic) [Example 632, rac-(1S*,2S*)—N-(2-((6-cyclopropyl-8-(3-methyl-2,4-dioxoimidazolidin-1-yl)imidazo[1,2-a]pyridin-2-yl)methyl)-2H-pyrazolo[3,4-d]pyrimidin-4-yl)-2-(4-methylpyrimidin-2-yl)cyclo propane-1-carboxamide]	> 9.00
O=C(Nc1cc(NCc2cn3cc(C4CC4)cc(N4CCN(CC(F)(F)F)CC4)c3n2)ccn1)[C@H]1C[C@@H]1c1cccc(Cl)c1 (racemic) [Example I-20]	8.00 to 9.00
CN1C(=O)CN(c2cc(C3CC3)cn3cc(CNc4cc(NC(=O)[C@H]5C[C@@H]5c5nccc(C(F)(F)F)n5)ncn4)nc23)C1=O (racemic) [Example I-165, rac-(1S*,2S*)-N-(6-(((6-cyclopropyl-8-(3-methyl-2,4-dioxoimidazolidin-1-yl)imidazo[1,2-a]pyridin-2-yl)methyl)amino)pyrimidin-4-yl)-2-(4-(trifluoromethyl)pyrimidin-2-yl)cyclopropane-1-carboxamide]	8.00 to 9.00
O=C(Nc1cc(NCc2cn3cc(C4CC4)ccc3n2)ncn1)[C@H]1C[C@@H]1c1cc(Cl)ncn1 (racemic) [Example I-176, rac-(1S*,2S*)-2-(6-chloropyrimidin-4-yl)-N-(6-(((6-cyclopropylimidazo[1,2-a]pyridin-2-yl)methyl)amino)pyrimidin-4-yl)cyclopropane-1-carboxamide]	6.00 to 7.00
O=C(Nc1cc(NCc2cn3cc(C4CC4)ccc3n2)ncn1)[C@H]1C[C@@H]1c1nccc(Cl)n1 (racemic) [Example I-177, rac-(1S*,2S*)-2-(4-chloropyrimidin-2-yl)-N-(6-(((6-cyclopropylimidazo[1,2-a]pyridin-2-yl)methyl)amino)pyrimidin-4-yl)cyclopropane-1-carboxamide]	> 9.00
O=C(Nc1cc(NCc2cn3cc(C4CC4)ccc3n2)ncn1)[C@H]1C[C@@H]1c1cc(Cl)cnn1 (racemic) [Example I-178, rac-(1S*,2S*)-2-(5-chloropyridazin-3-yl)-N-(6-(((6-cyclopropylimidazo[1,2-a]pyridin-2-yl)methyl)amino)pyrimidin-4-yl)cyclopropane-1-carboxamide]	6.00 to 7.00
N#Cc1cc(Cl)sc1[C@H]1C[C@@H]1C(=O)Nc1cc(NCc2cn3cc(C4CC4)ccc3n2)ncn1 (racemic) [Example I-179, rac-(1S*,2S*)-2-(5-chloro-3-cyanothiophen-2-yl)-N-(6-(((6-cyclopropylimidazo[1,2-a]pyridin-2-yl)methyl)amino)pyrimidin-4-yl)cyclopropane-1-carboxamide]	6.00 to 7.00
O=C(Nc1cc(NCc2cn3cc(C4CC4)ccc3n2)ncn1)[C@H]1[C@H](CO)[C@@H]1c1cccc(Cl)c1 (racemic) [Example I-180, rac-(1R*,2S*,3R*)-2-(3-chlorophenyl)-N-(6-(((6-cyclopropylimidazo[1,2-a]pyridin-2-yl)methyl)amino)pyrimidin-4-yl)-3-(hydroxymethyl)cyclopropane-1-carboxamide]	7.00 to 8.00
COc1ccc(=O)n([C@H]2C[C@@H]2C(=O)Nc2cc(NCc3cn4cc(C5CC5)ccc4n3)ncn2)c1 (racemic) [Example I-181, rac-(1S*,2S*)-N-(6-(((6-cyclopropylimidazo[1,2-a]pyridin-2-yl)methyl)amino)pyrimidin-4-yl)-2-(5-methoxy-2-oxopyridin-1(2H)-yl)cyclopropane-1-carboxamide]	< 5.22
COc1cc([C@H]2C[C@@H]2C(=O)Nc2cc(NCc3cn4cc(C5CC5)ccc4n3)ncn2)cc(NC(=O)OC(C)(C)C)n1 (racemic) [Example I-182, rac-tert-butyl (4-((1S*,2S*)-2-((6-(((6-cyclopropylimidazo[1,2-a]pyridin-2-yl)methyl)amino)pyrimidin-4-yl)carbamoyl)cyclopropyl)-6-methoxypyridin-2-yl)carbamate]	< 5.22
O=C(Nc1cc(NCc2cn3cc(C4CC4)ccc3n2)ncn1)[C@@H]1C[C@]12CCc1ccc(Cl)cc12 (racemic) [Example I-183, rac-(1R*,2R*)-6′-chloro-N-(6-(((6-cyclopropylimidazo[1,2-a]pyridin-2-yl)methyl)amino)pyrimidin-4-yl)-2′,3′-dihydrospiro[cyclopropane-1,1′-indene]-2-carboxamide]	7.00 to 8.00
O=C(Nc1cc(NCc2cn3cc(C4CC4)ccc3n2)ncn1)[C@@]1(F)C[C@@H]1c1cccc(Cl)c1 (racemic) [Example I-184, rac-(1S*,2S*)-2-(3-chlorophenyl)-N-(6-(((6-cyclopropylimidazo[1,2-a]pyridin-2-yl)methyl)amino)pyrimidin-4-yl)-1-fluorocyclopropane-1-carboxamide]	7.00 to 8.00
O=C(Nc1cc(NCc2cn3cc(C4CC4)ccc3n2)ncn1)[C@H]1C[C@@H]1c1ccc(Cl)s1 (racemic) [Example I-185, rac-(1S*,2S*)-2-(5-chlorothiophen-2-yl)-N-(6-(((6-cyclopropylimidazo[1,2-a]pyridin-2-yl)methyl)amino)pyrimidin-4-yl)cyclopropane-1-carboxamide]	6.00 to 7.00
O=C(Nc1cc(NCc2cn3cc(C4CC4)ccc3n2)ncn1)[C@H]1C[C@@H]1c1cc(Cl)cs1 (racemic) [Example I-186, rac-(1S*,2S*)-2-(4-chlorothiophen-2-yl)-N-(6-(((6-cyclopropylimidazo[1,2-a]pyridin-2-yl)methyl)amino)pyrimidin-4-yl)cyclopropane-1-carboxamide]	7.00 to 8.00
COc1cc([C@H]2C[C@@H]2C(=O)Nc2cc(NCc3cn4cc(C5CC5)ccc4n3)ncn2)cc(Cl)n1 (racemic) [Example I-187, rac-(1S*,2S*)-2-(2-chloro-6-methoxypyridin-4-yl)-N-(6-(((6-cyclopropylimidazo[1,2-a]pyridin-2-yl)methyl)amino)pyrimidin-4-yl)cyclopropane-1-carboxamide]	< 5.22
CC(C)(C)OC(=O)Nc1ccc([C@H]2C[C@@H]2C(=O)Nc2cc(NCc3cn4cc(C5CC5)ccc4n3)ncn2)cc1Cl (racemic) [Example I-188, rac-tert-butyl (2-chloro-4-((1S*,2S*)-2-((6-(((6-cyclopropylimidazo[1,2-a]pyridin-2-yl)methyl)amino)pyrimidin-4-yl)carbamoyl)cyclopropyl)phenyl)carbamate]	< 5.22
CC(C)(C)OC(=O)Nc1cc(Cl)cc([C@H]2C[C@@H]2C(=O)Nc2cc(NCc3cn4cc(C5CC5)ccc4n3)ncn2)c1 (racemic) [Example I-189, rac-tert-butyl (3-chloro-5-((1S*,2S*)-2-((6-(((6-cyclopropylimidazo[1,2-a]pyridin-2-yl)methyl)amino)pyrimidin-4-yl)carbamoyl)cyclopropyl)phenyl)carbamate]	< 5.22
O=C(Nc1cc(NCc2cn3cc(C4CC4)ccc3n2)ncn1)[C@H]1C[C@@H]1c1cccc(Cl)c1[N+](=O)[O-] (racemic) [Example I-190, rac-(1S*,2S*)-2-(3-chloro-2-nitrophenyl)-N-(6-(((6-cyclopropylimidazo[1,2-a]pyridin-2-yl)methyl)amino)pyrimidin-4-yl)cyclopropane-1-carboxamide]	< 5.22
O=C(Nc1cc(NCc2cn3cc(C4CC4)ccc3n2)ncn1)[C@H]1C[C@@H]1c1n[nH]c2ccc(Cl)cc12 (racemic) [Example I-191, rac-(1S*,2S*)-2-(5-chloro-1H-indazol-3-yl)-N-(6-(((6-cyclopropylimidazo[1,2-a]pyridin-2-yl)methyl)amino)pyrimidin-4-yl)cyclopropane-1-carboxamide]	< 5.22
COc1ccnc([C@H]2C[C@@H]2C(=O)Nc2cc(NCc3cn4cc(C5CC5)ccc4n3)ncn2)c1 (racemic) [Example I-204, rac-(1S*,2S*)-N-(6-(((6-cyclopropylimidazo[1,2-a]pyridin-2-yl)methyl)amino)pyrimidin-4-yl)-2-(4-methoxypyridin-2-yl)cyclopropane-1-carboxamide]	6.00 to 7.00
COc1ccc(C#N)c([C@H]2C[C@@H]2C(=O)Nc2cc(NCc3cn4cc(C5CC5)ccc4n3)ccn2)c1 (racemic) [Example I-206, rac-(1S*,2S*)-2-(2-cyano-5-methoxyphenyl)-N-(4-(((6-cyclopropylimidazo[1,2-a]pyridin-2-yl)methyl)amino)pyridin-2-yl)cyclopropane-1-carboxamide]	7.00 to 8.00
O=C(Nc1cc(NCc2cn3cc(C4CC4)ccc3n2)ccn1)[C@H]1C[C@@H]1c1cc(Cl)ncn1 (racemic) [Example I-210, rac-(1S*,2S*)-2-(6-chloropyrimidin-4-yl)-N-(4-(((6-cyclopropylimidazo[1,2-a]pyridin-2-yl)methyl)amino)pyridin-2-yl)cyclopropane-1-carboxamide]	6.00 to 7.00
O=C(Nc1cc(NCc2cn3cc(C4CC4)ccc3n2)ccn1)[C@H]1C[C@@H]1c1cc(Cl)cnn1 (racemic) [Example I-211, rac-(1S*,2S*)-2-(5-chloropyridazin-3-yl)-N-(4-(((6-cyclopropylimidazo[1,2-a]pyridin-2-yl)methyl)amino)pyridin-2-yl)cyclopropane-1-carboxamide]	7.00 to 8.00
N#Cc1cc(Cl)sc1[C@H]1C[C@@H]1C(=O)Nc1cc(NCc2cn3cc(C4CC4)ccc3n2)ccn1 (racemic) [Example I-212, rac-(1S*,2S*)-2-(5-chloro-3-cyanothiophen-2-yl)-N-(4-(((6-cyclopropylimidazo[1,2-a]pyridin-2-yl)methyl)amino)pyridin-2-yl)cyclopropane-1-carboxamide]	8.00 to 9.00
O=C(Nc1cc(NCc2cn3cc(C4CC4)ccc3n2)ccn1)[C@H]1[C@H](CO)[C@@H]1c1cccc(Cl)c1 (racemic) [Example I-213, rac-(1R*,2S*,3R*)-2-(3-chlorophenyl)-N-(4-(((6-cyclopropylimidazo[1,2-a]pyridin-2-yl)methyl)amino)pyridin-2-yl)-3-(hydroxymethyl)cyclopropane-1-carboxamide]	8.00 to 9.00
